# Target: αllbβ3 receptor (Homo sapiens, UniProt P05106+P08514)
# Test: similar competitive assay with purified αllbβ3 receptor and 125I-echistatin (specificity index versus αvβ3)
# Type: binding
# Details: IC50 αllbβ3 / IC50 αvβ3
# Text: The specificity index, which is a measure of the relative binding affinity for αvβ3 versus αllbβ3, may be determined by dividing the IC50 value for αllbβ3by the IC50 value for αvβ3.
# Chain of αllbβ3 receptor (P08514 32-1039): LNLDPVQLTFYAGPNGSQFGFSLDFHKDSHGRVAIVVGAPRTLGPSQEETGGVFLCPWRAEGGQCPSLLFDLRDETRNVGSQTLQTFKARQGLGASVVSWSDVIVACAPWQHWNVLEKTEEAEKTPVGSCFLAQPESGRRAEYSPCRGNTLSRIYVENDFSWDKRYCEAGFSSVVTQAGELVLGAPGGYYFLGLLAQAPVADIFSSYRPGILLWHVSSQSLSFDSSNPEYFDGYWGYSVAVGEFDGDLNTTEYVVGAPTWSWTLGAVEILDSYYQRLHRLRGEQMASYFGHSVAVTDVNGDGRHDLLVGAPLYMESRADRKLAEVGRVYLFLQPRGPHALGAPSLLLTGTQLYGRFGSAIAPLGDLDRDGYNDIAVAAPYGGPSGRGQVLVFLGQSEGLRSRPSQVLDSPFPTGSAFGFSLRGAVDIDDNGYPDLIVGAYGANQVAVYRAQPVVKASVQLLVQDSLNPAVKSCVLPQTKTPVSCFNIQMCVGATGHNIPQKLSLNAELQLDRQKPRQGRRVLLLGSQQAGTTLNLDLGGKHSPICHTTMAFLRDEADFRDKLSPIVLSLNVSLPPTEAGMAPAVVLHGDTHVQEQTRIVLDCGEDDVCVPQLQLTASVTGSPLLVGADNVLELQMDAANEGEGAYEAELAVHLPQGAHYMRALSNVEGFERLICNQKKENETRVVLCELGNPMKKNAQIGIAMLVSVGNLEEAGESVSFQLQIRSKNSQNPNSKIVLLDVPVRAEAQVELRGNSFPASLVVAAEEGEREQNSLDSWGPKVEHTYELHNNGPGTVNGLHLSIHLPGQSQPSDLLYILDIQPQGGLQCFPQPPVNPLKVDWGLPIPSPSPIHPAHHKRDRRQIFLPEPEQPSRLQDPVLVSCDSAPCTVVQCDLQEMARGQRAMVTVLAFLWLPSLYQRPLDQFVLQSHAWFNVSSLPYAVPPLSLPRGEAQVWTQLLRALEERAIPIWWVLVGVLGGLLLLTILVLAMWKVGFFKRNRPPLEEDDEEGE
# Chain of αllbβ3 receptor (P05106 27-788): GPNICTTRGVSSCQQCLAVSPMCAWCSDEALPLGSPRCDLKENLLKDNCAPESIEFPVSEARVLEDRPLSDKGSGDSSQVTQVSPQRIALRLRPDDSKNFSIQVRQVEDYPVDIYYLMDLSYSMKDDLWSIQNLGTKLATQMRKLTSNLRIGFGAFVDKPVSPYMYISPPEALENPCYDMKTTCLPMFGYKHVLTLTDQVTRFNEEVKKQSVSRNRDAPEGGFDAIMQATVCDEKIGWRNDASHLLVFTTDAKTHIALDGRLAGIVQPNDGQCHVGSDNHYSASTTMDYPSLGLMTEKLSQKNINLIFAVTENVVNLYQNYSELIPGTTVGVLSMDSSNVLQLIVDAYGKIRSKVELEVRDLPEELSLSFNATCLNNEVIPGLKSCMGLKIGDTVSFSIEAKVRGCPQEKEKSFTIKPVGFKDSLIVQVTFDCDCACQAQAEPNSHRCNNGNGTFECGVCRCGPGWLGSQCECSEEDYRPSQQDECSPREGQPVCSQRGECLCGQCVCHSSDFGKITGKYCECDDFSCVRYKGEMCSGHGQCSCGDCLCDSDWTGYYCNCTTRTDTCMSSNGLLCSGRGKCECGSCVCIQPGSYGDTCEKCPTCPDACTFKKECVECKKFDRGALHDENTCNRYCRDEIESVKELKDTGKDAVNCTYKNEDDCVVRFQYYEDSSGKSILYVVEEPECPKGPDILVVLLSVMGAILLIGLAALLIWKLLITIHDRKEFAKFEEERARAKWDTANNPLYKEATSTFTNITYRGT
row,Compound,SPECIFICITY αIIb β3/αvβ3 (specificity index)
1,CC(NCc1ccc(C(=O)NC[C@H](NC(=O)OCc2ccccc2)C(=O)O)cc1)c1nc2ccccc2[nH]1 (stereo partly shown) [Example 5-75],10.2
2,Cn1c(CN(Cc2ccc(C(=O)NC[C@H](NC(=O)OCc3ccccc3)C(=O)O)cc2)C(=O)NC2CCCCC2)nc2ccccc21 [Example 5-92],174
3,O=C(N[C@@H](CNC(=O)c1ccc(CN(Cc2nc3ccccc3[nH]2)C(=O)NCc2ccccc2)cc1)C(=O)O)OCc1ccccc1 [Example 5-29],144
4,CCOC(=O)[C@H](C)NC(=O)N(Cc1ccc(C(=O)NC[C@H](NC(=O)OCc2ccccc2)C(=O)O)cc1)Cc1nc2ccccc2[nH]1 [Example 5-50],805
5,O=C(N[C@@H](CNC(=O)c1ccc(CN(Cc2nc3ccccc3[nH]2)C(=O)CCC2CCCC2)cc1)C(=O)O)OCc1ccccc1 [Example 5-14],117
6,CCCNC(=O)N(Cc1ccc(C(=O)NC[C@H](NC(=O)OCc2ccccc2)C(=O)O)cc1)Cc1nc2ccccc2[nH]1 [Example 5-39],223
7,CCOc1ccc(NC(=O)N(Cc2ccc(C(=O)NC[C@H](NC(=O)OCc3ccccc3)C(=O)O)cc2)Cc2nc3ccccc3[nH]2)cc1 [Example 5-32],151
8,CC(C)(C)OC(=O)N[C@@H](CNC(=O)c1ccc(CN(Cc2nc3ccccc3[nH]2)C(=O)CCc2ccccc2)cc1)C(=O)O [Example 5-63],293
9,CC(c1nc2ccccc2[nH]1)N(Cc1ccc(C(=O)NC[C@H](NC(=O)OCc2ccccc2)C(=O)O)cc1)C(=O)CCC1CCCC1 (stereo partly shown) [Example 5-79],19.0
10,CCCCOC(=O)N[C@@H](CNC(=O)c1ccc(CN(Cc2nc3ccccc3[nH]2)C(=O)N[C@@H](C)C(=O)OCC)cc1)C(=O)O [Example 5-89],1094
11,"CCOC(=O)CNC(=O)N(Cc1ccc(C(=O)NC[C@H](NC(=O)OCc2ccccc2)C(=O)O)cc1)Cc1nc2ccccc2[nH]1 [Example 5-45, N^3-[4-[(benzimidazol-2-yl)methyl][[(ethoxycarbonylmethyl)amino]-carbonyl]aminomethylbenzoyl]-N^2 -Cbz-L-2,3-diaminopropionic acid]",1333
12,CCCCOC(=O)N[C@@H](CNC(=O)c1ccc(CN(Cc2nc3ccccc3[nH]2)C(=O)Nc2ccccc2)cc1)C(=O)O [Example 5-83],1689
13,CC(=O)N(Cc1ccc(C(=O)NC[C@H](NC(=O)OC(C)(C)C)C(=O)O)cc1)Cc1nc2ccccc2[nH]1 [Example 5-61],324
14,CCNC(=O)N(Cc1ccc(C(=O)NC[C@H](NC(=O)OCc2ccccc2)C(=O)O)cc1)Cc1nc2ccccc2[nH]1 [Example 5-43],585
15,O=C(N[C@@H](CNC(=O)c1ccc(CN(Cc2nc3ccccc3[nH]2)C(=S)NC2CCCCC2)cc1)C(=O)O)OCc1ccccc1 [Example 5-55],620
16,CC(C)NC(=O)N(Cc1ccc(C(=O)NC[C@H](NC(=O)OCc2ccccc2)C(=O)O)cc1)Cc1nc2cc(Cl)ccc2[nH]1 [Example 5-95],775
17,COCC(=O)N(Cc1ccc(C(=O)NC[C@H](NC(=O)OC(C)(C)C)C(=O)O)cc1)Cc1nc2ccccc2[nH]1 [Example 5-62],419
18,O=C(NC(CNC(=O)c1ccc(CN(CCc2nc3ccccc3[nH]2)C(=O)CCC2CCCC2)cc1)C(=O)O)OCc1ccccc1 (stereo not shown) [Example 5-74],0.6
19,O=C(N[C@@H](CNC(=O)c1ccc(CN(Cc2nc3ccccc3[nH]2)C(=O)C2CCCCC2)cc1)C(=O)O)OCc1ccccc1 [Example 5-15],95
